# Marks after values point to notes of the source that are not given here.
# Legend:
# [1] = system: Escherichia coli; test: MIC and synergy checkerboard assay, broth microdilution; format: cell-based
# Protocol: (§1) The described novel combination was tested against both reference, and clinically resistant strains of S. aureus, E, coli, K. pneumoniae, and P. aeruginosa. Reference and clinical isolates were obtained from the American Type Culture Collection (ATCC, Manasas, VA.) and International Health Management Associates, Inc. (Schaumberg, IL). Bacteria were cultured in trypticase soy broth, concentrated 10-fold by centrifugation, and cryopreserved in the same medium containing 20% glycerol by holding at −80° C. Every two weeks a small amount of frozen culture was removed aseptically, and streaked on fresh trypticase soy agar plates to act as a working inoculum. Following overnight growth at about 37° C., the plates were wrapped in parafilm, and held at about 4° C. Bacteria (4-5 colonies) were then aseptically transferred into broth growth medium for assays as needed.
# (§2) Minimum inhibitory concentration (MIC) assays were performed in a manner as described for the CLSI Agar dilution or broth microdilution assay guideline (see, Clinical Laboratory Standards Institute, 2009, Methods for Dilution Antimicrobial Susceptibility Tests for Bacteria That Grow Aerobically; Approved Standard, Eighth Edition, M07-A8, Vol. 29, No. 2). For example, known antibiotics or the compositions described herein were dissolved, serially diluted, and then added to tempered molten Mueller-Hinton Agar before pouring of plates; or were dissolved, and then serially diluted in 100 μL cation-adjusted Mueller-Hinton broth across the assay plate in the classical 2-fold geometric format. D-glucose-6-phosphate was included as a medium supplement in both agar, and broth at a concentration of 50 mg/L. Antibiotic concentrations for agar assay were at the final concentration. Antibiotic concentrations for broth microdilution in each well at this point were double what the final assay concentration would be. Bacterial inocula were prepared by swabbing several colonies from a fresh agar plate, and re-suspending the bacteria to a density that was the 0.5 McFarland turbidity standard, considered close or equivalent to 1×10^8 CFU/mL. For agar dilution, a steers replicator was utilized to deliver 1×10^4 CFU/spot. For broth microdilution, the bacterial inocula were diluted in the cation-adjusted Mueller-Hinton broth to 1×10^6 CFU/mL, and 100 μL was overlayered onto the wells containing a diluted antibiotic or a composition described. Following incubation as per the guideline, results were recorded as growth or no growth, and the lowest concentration of the antibiotic or the composition described where no growth was observed was declared the MIC.
# (§3) To assay for synergy of antibacterial combinations, a recognized synergy checkerboard assay, adapted from the CLSI guideline microdilution assay, was utilized (see Eliopoulos, G. M., and Moellering, R. C, Jr., 1996. Antimicrobial Combinations, pg. 330-396. In: Lorian, V. (Ed.), Antibiotics in Laboratory Medicine, 4th Ed., Williams & Wilkins; Baltimore, MD). In the case of the agar dilution method, each antibiotic alone, or in combination was added to agar prior to plate pouring. For broth microdilution, the first compound (or antibiotic or agent) was diluted in cation-adjusted Mueller-Hinton broth across the plate along the horizontal axis with each well in a row containing 50 μL of an identical concentration of compound (or antibiotic). Along the vertical axis a dilution series of the second compound (or antibiotic) was dispensed. At this point the drug concentrations are four-fold of the final desired working concentration. […] Following incubation, wells with no growth are noted. […] FIC=(MIC-A combination/MIC-A alone)+(MIC-B combination/MIC-B alone).
# (§4) In the above, FIC: Synergy=FIC<0.5; Additive=FIC>0.5-1; Indifferent=FIC>1-2; Antagonism=FIC>2-4.
# [2] = system: K. pneumoniae; test: as above; format: cell-based
# Protocol: as §1, §2, §3, §4
# [3] = system: Pseudomonas aeruginosa; test: as above; format: cell-based
# Protocol: as §1, §2, §3, §4
# [4] = system: Staphylococcus aureus; test: as above; format: cell-based
# Protocol: as §1, §2, §3, §4
# [5] = system: Enterococcus faecalis; test: as above; format: cell-based
# [6] = system: bacteria; test: spontaneous mutational frequency (SMF; resistance); format: cell-based; settings: resistant colonies observed divided by total inoculum; plates with 4-fold MIC of the combination or 2-fold MIC of each antibiotic alone
# Protocol: MIC was further evaluated to confirm resistance, and the spontaneous mutational frequency was calculated based on the following equation: […]
# The spontaneous mutational frequency (SMF; resistance) was calculated as the number of resistant colonies observed divided by the total inoculum.
# [7] = representative pharmacokinetic parameters; format: in vivo
# From the text: The therapeutically effective amount may be modified by pharmacokinetic, and pharmacodynamic analysis as is understood in the field. In some embodiments, the novel composition may be provided prophylactically or preventatively or protectively, which may, in some instances, be at or below a therapeutically effective amount.
# [8] = system: E. coli; settings: cited from earlier work
smiles,measurement,setting,value
"C[C@@H]1O[C@@H]1P(=O)(O)O [Fosfomycin, cis-1,2-epoxypropyl phosphonic acid]",MIC (Combo as F/DP/SM; second compound as DP/SM),[1]; Escherichia coli 846439,32 µg/mL
same,MIC (Combo as F/DP/SM; second compound as DP/SM),[1]; Escherichia coli 846446,2 µg/mL
same,MIC (Combo as F/DP/SM; second compound as DP/SM),[1]; Escherichia coli 846450,16 µg/mL
same,MIC (Combo as F/DP/SM; second compound as DP/SM),[1]; Escherichia coli 857021,32 µg/mL
same,MIC (Combo as F/DP/SM; second compound as DP/SM),[1]; Escherichia coli 863686,32 µg/mL
same,MIC (Combo as F/DP/SM; second compound as DP/SM),[1]; Escherichia coli (854535),64 µg/mL
same,MIC (Combo as F/DP/SM; second compound as DP/SM),[1]; Escherichia coli (928017),64 µg/mL
same,MIC (Combo as F/DP/SM; second compound as DP/SM),[1]; Escherichia coli (ATCC 25922),8 µg/mL
same,MIC (Combo as F/DP/SM; second compound as DP/SM),[2]; K. pneumoniae 848788,>64* μg/ml
same,MIC (Combo as F/DP/SM; second compound as DP/SM),[2]; K. pneumoniae 857147,16 µg/mL
same,MIC (Combo as F/DP/SM; second compound as DP/SM),[2]; K. pneumoniae 857187,64 µg/mL
same,MIC (Combo as F/DP/SM; second compound as DP/SM),[2]; K. pneumoniae 868968,>64* μg/ml
same,MIC (Combo as F/DP/SM; second compound as DP/SM),[2]; K. pneumoniae 868972,64 µg/mL
same,MIC (Combo as F/DP/SM; second compound as DP/SM),[2]; K. pneumoniae 869028,>64* μg/ml
same,MIC (Combo as F/DP/SM; second compound as DP/SM),[2]; K. pneumoniae 875638,32 µg/mL
same,MIC (Combo as F/DP/SM; second compound as DP/SM),[2]; K. pneumoniae 892483,>64* μg/ml
same,MIC (Combo as F/DP/SM; second compound as DP/SM),[2]; K. pneumoniae 926439,64 µg/mL
same,MIC (Combo as F/DP/SM; second compound as DP/SM),[3]; P. aeruginosa 826882,64 µg/mL
same,MIC (Combo as F/DP/SM; second compound as DP/SM),[3]; P. aeruginosa 880238,64 µg/mL
same,MIC (Combo as F/DP/SM; second compound as DP/SM),[3]; P. aeruginosa 906939,64 µg/mL
same,MIC (Combo as F/DP/SM; second compound as DP/SM),[3]; P. aeruginosa 926474,32 µg/mL
same,MIC (Combo as F/DP/SM; second compound as DP/SM),[3]; P. aeruginosa 945543,32 µg/mL
same,MIC (Combo as F/DP/SM; second compound as DP/SM),[3]; P. aeruginosa 945545,64 µg/mL
same,MIC (Combo as F/DP/SM; second compound as DP/SM),[3]; P. aeruginosa 945748,64 µg/mL
same,MIC (Combo as F/DP/SM; second compound as DP/SM),[3]; Pseudomonas aeruginosa (924190),256* μg/ml
same,MIC (Combo as F/DP/SM; second compound as DP/SM),[3]; Pseudomonas aeruginosa (985543),128* μg/ml
same,MIC (Combo as F/DP/SM; second compound as DP/SM),[4]; S. aureus 829025 (MRSA strains),4 µg/mL
same,MIC (Combo as F/DP/SM; second compound as DP/SM),[4]; S. aureus 829049 (MRSA strains),8 µg/mL
same,MIC (Combo as F/DP/SM; second compound as DP/SM),[4]; S. aureus 903887 (MRSA strains),8 µg/mL
same,MIC (Combo as F/DP/SM; second compound as DP/SM),[4]; S. aureus 920516 (MRSA strains),2 µg/mL
same,MIC (Combo as F/DP/SM; second compound as DP/SM),[4]; S. aureus 920962 (MRSA strains),2 µg/mL
same,MIC (Combo as F/DP/SM; second compound as DP/SM),[4]; S. aureus 927596 (MRSA strains),8 µg/mL
same,MIC (Combo as F/DP/SM; second compound as DP/SM),[4]; S. aureus 938125 (MRSA strains),4 µg/mL
same,MIC (Combo as F/DP/SM; second compound as DP/SM),[4]; S. aureus 953041 (MRSA strains),8 µg/mL
same,MIC (Combo as F/DP/SM; second compound as DP/SM),[4]; S. aureus 956270 (MRSA strains),28 µg/mL
same,MIC (Combo as F/DP/SM; second compound as DP/SM),[4]; S. aureus 956362 (MRSA strains),16 µg/mL
same,MIC (Combo as F/DP/SM; second compound as DP/SM),[4]; S. aureus 967287 (MRSA strains),8 µg/mL
same,MIC (Combo as F/DP/SM; second compound as DP/SM),[4]; S. aureus 974980 (MRSA strains),8 µg/mL
same,MIC (Combo as F/DP/SM; second compound as DP/SM),[4]; S. aureus 979234 (MRSA strains),16 µg/mL
same,MIC (Combo as F/DP/SM; second compound as DP/SM),[4]; S. aureus 1045190 (MRSA strains),2 µg/mL
same,MIC (Combo as F/DP/SM; second compound as DP/SM),[4]; Staphylococcus aureus (918019 - MRSA),32 µg/mL
same,MIC (Combo as F/DP/SM; second compound as DP/SM),[4]; Staphylococcus aureus (959797 - MRSA),16 µg/mL
same,MIC (Combo as F/DP/SM; second compound as DP/SM),[4]; Staphylococcus aureus (ATCC 29213 - MSSA),32 µg/mL
same,MIC (Combo as F/DP/SM; second compound as DP/SM),[4]; Staphylococcus aureus (ATCC 33591),64 µg/mL
same,MIC (Combo as F/DP/SM; second compound as DP/SM),[4]; Staphylococcus aureus (MGH-04),128* μg/ml
same,MIC (Combo as F/DP/SM; second compound as DP/SM),[4]; Staphylococcus aureus (USA-300 CDC- MRSA),64 µg/mL
same,MIC (Combo as F/DP/SM; second compound as DP/SM),[5]; E. faecalis 1082155,32 µg/mL
same,MIC (Combo as F/DP/SM; second compound as DP/SM),[5]; E. faecalis 1120278,64 µg/mL
same,MIC (Combo as F/DP/SM; second compound as DP/SM),[5]; E. faecalis 1129099,4 µg/mL
same,MIC (Combo as F/DP/SM; second compound as DP/SM),[5]; E. faecalis 1175598,32 µg/mL
same,MIC (Combo as F/DP/SM; second compound as DP/SM),[5]; E. faecalis 10864321,32 µg/mL
same,MIC (Combo as F/DP/SM; second compound as DP/SM),[5]; Enterococcus faecalis (ATCC 29212),64 µg/mL
same,MIC (Combo as F/DP/SM; second compound as DP/SM),[5]; Enterococcus faecalis (MGH-01) (VanA),256* μg/ml
same,MIC (Combo as F/DP/SM; second compound as DP/SM),[5]; Enterococcus faecalis (MGH-06),128* μg/ml
same,"frequency of spontaneous mutants resistant (spontaneous mutational frequency, SMF)",[6],6.33×10^−6
same,kel (elimination rate constant),"[7]; Dose: Fosfomycin 3000 mg, trimethoprim 720 mg",0.122 h⁻¹
same,half-life,"[7]; in vivo, 3000 mg, read-out: T ½ (converted)",5.7 h
same,Tmax,"[7]; in vivo, read-out: Tmax",2 h
same,MIC,[8],0.5 to 2 µg/mL
